According to patent publication US10940139B2, “Compounds that interact with the Ras superfamily for the treatment of cancers, inflammatory diseases, rasopathies, and fibrotic disease” (Shy Therapeutics LLC, priority 2017, dated 2021):

Key:
[1] = molecular target: KRas G12D/Q61H double mutant (Homo sapiens (Human), UniProt P01116, G12D/Q61H); assay: Ras GTP binding domain inhibition assay (labeled GTP); settings: at 20 μM; read-out: KRas G12D Q61H % Inh.
Procedure, shortened: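 His-tagged KRas protein (3-10 μg/ml) was captured overnight at 4° C on nickel-coated wells in 50 mM Tris pH 7.5, 1 mM MgCl2, 1 mM DTT. Bound labeled GTP was read by fluorescence after washing.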

Rac-1 = Rac-1 (Homo sapiens (Human), UniProt P63000); assay: Rac inhibition assay (labeled GTP); assay type: binding; settings: read-out: Rac-1 % Inh.
Rho-A = Rho-A (Homo sapiens (Human), UniProt P61586); assay: Rho inhibition assay (labeled GTP); assay type: binding; settings: read-out: Rho-A % Inh.
Sequence of Rho-A (P61586 whole entry): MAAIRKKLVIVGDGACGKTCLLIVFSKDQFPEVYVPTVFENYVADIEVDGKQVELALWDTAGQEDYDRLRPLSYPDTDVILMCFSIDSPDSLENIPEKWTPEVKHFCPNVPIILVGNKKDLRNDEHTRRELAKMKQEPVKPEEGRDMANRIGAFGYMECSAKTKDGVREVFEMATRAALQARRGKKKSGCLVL

Sequence of KRas G12D/Q61H double mutant (P01116-2 other isoform, or with tags, fused parts or gaps G12D/Q61H): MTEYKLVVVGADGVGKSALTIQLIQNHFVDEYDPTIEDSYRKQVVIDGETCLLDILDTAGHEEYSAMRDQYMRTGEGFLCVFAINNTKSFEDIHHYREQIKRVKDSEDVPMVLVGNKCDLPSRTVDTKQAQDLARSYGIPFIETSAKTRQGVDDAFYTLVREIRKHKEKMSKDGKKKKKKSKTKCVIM

Compound	inhibition at 20 µM [1]	inhibition at 20 µM (Rac-1)	inhibition at 20 µM (Rho-A)
COc1ccnc(-c2nc(O)c3c(C(F)(F)F)csc3n2)c1 [drawing 3705]	25 to 50%	51 to 75%	51 to 75%
Nc1nc(-c2ccccn2)nc2c(-c3ccccc3Cl)csc12 [drawing 3707]	1 to 25%	25 to 50%	25 to 50%
Cc1sc2c(N)nc(-c3ccccn3)nc2c1-c1ccccc1 [drawing 3709]	25 to 50%	25 to 50%	25 to 50%
CC(C)(C)c1ccc(-c2csc3c(O)nc(-c4ccccn4)nc23)cc1 [drawing 3719]	51 to 75%	51 to 75%	51 to 75%
N#Cc1ccc2c(c1)CCCC2C(=O)Nc1ccnc(-c2ccccn2)n1 (stereo not drawn) [drawing 3727]	51 to 75%	51 to 75%	51 to 75%
Oc1nc(-c2ccccn2)nc2c(-c3ccc(OC4CCOC4)cc3)csc12 (stereo not drawn) [drawing 3734]	25 to 50%	51 to 75%	76 to 100%
Oc1nc(-c2ccccn2)nc2c(-c3ccccc3OC3CCCCC3)csc12 [drawing 3738]	51 to 75%	51 to 75%	51 to 75%
Oc1nc(-c2ccccn2)nc2c(-c3ccc(OC4CCOCC4)cc3)csc12 [drawing 3739]	25 to 50%	51 to 75%	51 to 75%
COc1cc(C)c(-c2csc3c(O)nc(-c4ccccn4)nc23)cc1C [drawing 3741]	25 to 50%	51 to 75%	25 to 50%
Cc1cc(OC(F)F)ccc1-c1csc2c(O)nc(-c3ccccn3)nc12 [drawing 3750]	25 to 50%	25 to 50%	1 to 25%
Oc1nc(-c2ccccn2)nc2c(-c3ccc(OC4CCCCC4)cc3)csc12 [drawing 3759]	25 to 50%	51 to 75%	51 to 75%
Nc1nc(-c2ccccn2)nc2c(Br)csc12 [drawing 3764]	25 to 50%	51 to 75%	51 to 75%
Cc1sc2c(N)nc(-c3ccccn3)nc2c1Br [drawing 3765]	25 to 50%	25 to 50%	25 to 50%
CCn1nc(C)cc1-c1csc2c(O)nc(-c3ccccn3)nc12 [drawing 3775]	51 to 75%	51 to 75%	76 to 100%
COc1cnc(C2CCCN2)nc1O (stereo not drawn) [drawing 3788]	0%	0%	1 to 25%
Cc1c(Br)sc2c(O)nc(-c3ccccn3)nc12 [drawing 3793]	25 to 50%	51 to 75%	51 to 75%
Oc1nc(-c2ccccn2)nc2c3c(sc12)CNC3 [drawing 3796]	51 to 75%	76 to 100%	76 to 100%
COc1nc(-c2ccccn2)nc2c(C3CCCCC3)csc12 [drawing 3798]	1 to 25%	1 to 25%	1 to 25%
COc1nc(-c2ccccn2)nc2c(C3CCC3)csc12 [drawing 3799]	51 to 75%	76 to 100%	76 to 100%
Cc1sc2nc(-c3ccccn3)nc(N)c2c1Br [drawing 3803]	25 to 50%	25 to 50%	51 to 75%
COc1nc(-c2ccccn2)nc2c(C3CC3)csc12 [drawing 3808]	1 to 25%	0%	0%
COc1cnc(C2(N)CCCC2)nc1O [drawing 3809]	1 to 25%	1 to 25%	1 to 25%
COc1cnc(C(C)(C)N)nc1O [drawing 3810]	1 to 25%	1 to 25%	0%
COC(=O)c1c(C)sc2c(N)nc(-c3ccccn3)nc12 [drawing 3818]	51 to 75%	76 to 100%	76 to 100%

Further lines, results first:

inhibition at 20 µM [1]	inhibition at 20 µM (Rac-1)	inhibition at 20 µM (Rho-A)	Compound
1 to 25%	76 to 100%	51 to 75%	O=C(c1csc2c(O)nc(-c3ccccn3)nc12)N1CCOC(CN2CCOCC2)C1 (stereo not drawn) [drawing 3694]
25 to 50%	76 to 100%	76 to 100%	O=C(c1csc2c(O)nc(-c3ccccn3)nc12)N1CCNC(c2ccccc2Cl)C1 (stereo not drawn) [drawing 3695]
1 to 25%	76 to 100%	76 to 100%	O=C(c1csc2c(O)nc(-c3ccccn3)nc12)N1CCNC(c2ccc(F)cc2)C1 (stereo not drawn) [drawing 3696]
1 to 25%	1 to 25%	1 to 25%	COCCCCNC(=O)c1csc2nc(-c3ccccn3)nc(N3CCS(=O)(=O)CC3)c12 [drawing 3698]
51 to 75%	76 to 100%	51 to 75%	COc1cccc(CC2CN(C(=O)c3csc4c(O)nc(-c5ccccn5)nc34)CCN2)c1 (stereo not drawn) [drawing 3702]
51 to 75%	76 to 100%	76 to 100%	O=C(c1csc2c(O)nc(-c3ccccn3)nc12)N1CCNC(Cc2ccc(F)cc2)C1 (stereo not drawn) [drawing 3703]
51 to 75%	51 to 75%	51 to 75%	O=C(c1csc2c(O)nc(-c3ccccn3)nc12)N1CCNC(Cc2cccc(F)c2)C1 (stereo not drawn) [drawing 3704]
51 to 75%	76 to 100%	76 to 100%	O=C(c1cc2nc(-c3ccccn3)nc(O)c2s1)N1CCOC(c2ccccc2)C1 (stereo not drawn) [drawing 3714]
25 to 50%	76 to 100%	76 to 100%	O=C(NCCc1cccnc1)c1cc2nc(-c3ccccn3)nc(O)c2s1 [drawing 3715]
51 to 75%	51 to 75%	51 to 75%	Cc1ccc(OC2CCCC2)c(-c2csc3c(O)nc(-c4ccccn4)nc23)c1 [drawing 3716]
25 to 50%	25 to 50%	1 to 25%	COc1ccc(CCNC(=O)c2csc3nc(-c4ccccn4)nc(N4CCS(=O)(=O)CC4)c23)cn1 [drawing 3725]
25 to 50%	51 to 75%	51 to 75%	O=C(NCCc1cnc(O)nc1)c1csc2nc(-c3ccccn3)nc(N3CCS(=O)(=O)CC3)c12 [drawing 3726]
25 to 50%	25 to 50%	25 to 50%	Oc1nc(-c2ccccn2)nc2c(-c3ccc(OC4CCCC4)cc3)csc12 [drawing 3735]
51 to 75%	51 to 75%	51 to 75%	Oc1nc(-c2ccccn2)nc2c(-c3ccc(C4CCC4)cc3)csc12 [drawing 3737]
25 to 50%	51 to 75%	25 to 50%	Oc1nc(-c2ccccn2)nc2c(-c3ccc(CN4CCOCC4)cc3)csc12 [drawing 3754]
25 to 50%	51 to 75%	51 to 75%	Nc1nc(-c2ccccn2)nc2scc(Br)c12 [drawing 3766]
25 to 50%	51 to 75%	51 to 75%	COC(=O)c1csc2nc(-c3ccccn3)nc(N)c12 [drawing 3767]
1 to 25%	25 to 50%	25 to 50%	COc1nccc(CCNC(=O)c2csc3nc(-c4ccccn4)nc(N4CCOCC4)c23)n1 [drawing 3769]
1 to 25%	51 to 75%	51 to 75%	O=C(NCCc1ccnc(O)n1)c1csc2nc(-c3ccccn3)nc(N3CCOCC3)c12 [drawing 3770]
1 to 25%	25 to 50%	25 to 50%	Oc1nc(-c2ccccn2)nc2c(-c3ccnn3-c3ccccn3)csc12 [drawing 3776]
25 to 50%	51 to 75%	51 to 75%	Nc1nc(-c2ccccn2)nc2scc(C(=O)O)c12 [drawing 3778]
51 to 75%	51 to 75%	76 to 100%	COC(=O)c1cc2nc(-c3ccccn3)nc(O)c2s1 [drawing 3779]
25 to 50%	25 to 50%	51 to 75%	Oc1nc(-c2ccccn2)nc2c(-c3ccc(Cl)c(Cl)c3)csc12 [drawing 3781]
1 to 25%	1 to 25%	1 to 25%	Oc1nc(-c2ccccn2)nc2c(-c3cncc(F)c3)csc12 [drawing 3782]
25 to 50%	51 to 75%	25 to 50%	Cc1cncc(-c2csc3c(O)nc(-c4ccccn4)nc23)c1 [drawing 3785]
51 to 75%	76 to 100%	76 to 100%	COC(=O)c1c(C)sc2c(O)nc(-c3ccccn3)nc12 [drawing 3792]
25 to 50%	51 to 75%	51 to 75%	COC(=O)c1sc2c(O)nc(-c3ccccn3)nc2c1C [drawing 3795]
25 to 50%	1 to 25%	25 to 50%	Cc1sc2c(O)nc(-c3ccccn3)nc2c1C(=O)O [drawing 3801]
25 to 50%	51 to 75%	76 to 100%	Oc1nc(-c2ccccn2)nc2c(CC3CCCNC3)csc12 (stereo not drawn) [drawing 3807]
25 to 50%	51 to 75%	51 to 75%	O=C(NCCc1ccncn1)c1csc2nc(-c3ccccn3)nc(N3CCOCC3)c12 [drawing 3819]
